Results from patent EP3083561B1, “HETEROARYL LINKED QUINOLINYL MODULATORS OF RORYT” (Janssen Pharmaceutica NV, priority 2013, dated 2015).
Structures can show the parent of a compound that is named as a salt.

Columns and labels:
[1] = target: T1, human RORγt ligand binding domain (RORγt LBD) (Homo sapiens, UniProt P51449); test: RORγt ThermoFluor assay (thermal shift binding affinity); settings: 0.065 mg/mL RORγt, pH 7.0; estimated from thermal shift
T1 construct: made in house; host or cells: E. coli (pHIS1, modified pET vector)
T1 sequence (P51449 258-518): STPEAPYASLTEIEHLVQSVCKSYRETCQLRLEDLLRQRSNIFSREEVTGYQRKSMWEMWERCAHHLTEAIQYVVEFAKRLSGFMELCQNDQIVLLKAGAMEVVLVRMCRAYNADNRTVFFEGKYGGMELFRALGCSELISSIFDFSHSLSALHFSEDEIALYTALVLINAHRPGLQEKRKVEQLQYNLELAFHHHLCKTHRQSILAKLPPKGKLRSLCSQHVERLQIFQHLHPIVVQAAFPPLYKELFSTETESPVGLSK
Protocol: This approach is applicable to a wide variety of systems, and rigorous in theoretical interpretation through quantitation of equilibrium binding constants (KD).
The shift in the melting point described as a ΔTm is proportional to the concentration and affinity of the ligand. The compound potency may be compared as a rank order of either ΔTm values at a single compound concentration or in terms of KD values, estimated from concentration response curves.
ThermoFluor® experiments were carried out using instruments owned by Janssen Research and Discovery, L.L.C. through its acquisition of 3-Dimensional Pharmaceuticals, Inc. 1,8-ANS (Invitrogen) was used as a fluorescent dye. Protein and compound solutions are dispensed into black 384-well polypropylene PCR microplates (Abgene) and overlayed with silicone oil (1 µL, Fluka, type DC 200) to prevent evaporation.
Bar-coded assay plates are robotically loaded onto a thermostatically controlled PCR-type thermal block and then heated at a typical ramp-rate of 1 °C/min for all experiments. Fluorescence was measured by continuous illumination with UV light (Hamamatsu LC6) supplied via fiber optic and filtered through a band-pass filter (380-400 nm; >6 OD cutoff). Fluorescence emission of the entire 384-well plate was detected by measuring light intensity using a CCD camera (Sensys, Roper Scientific) filtered to detect 500 ± 25 nm, resulting in simultaneous and independent readings of all 384 wells. Images were collected at each temperature, and the sum of the pixel intensity in a given area of the assay plate was recorded versus temperature. Reference wells contained RORγt without compounds, and the assay conditions were as follows: • 0.065 mg/mL RORyt • 60 µM 1,8-ANS • 100 mM Hepes, pH 7.0 • 10 mM NaCl • 2.5 mM GSH • 0.002% Tween-20
Project compounds were arranged in a pre-dosed mother plate (Greiner Bio-one) wherein compounds are serially diluted in 100% DMSO by 1:2 from a high concentration of 10 mM over 12 columns within a series (column 12 is a reference well containing DMSO, no compound). The compounds were robotically dispensed directly into assay plates (1x = 46 nL) using a Hummingbird capillary liquid handling instrument (Digilab). Following compound dispense, protein and dye in buffer was added to achieve the final assay volume of 3 µL, followed by 1 µL of silicone oil.

[2] = test system: IL-17 production by CD4 T cells; test: Human Th17 assay (IL-17 production by CD4 T cells); type: cell-based; settings: CD4+ T cells from healthy donors, Th17 differentiation, 3 days
Excerpt: The human Th17 assay tests the effect of RORγt modulatory compounds on IL-17 production by CD4 T cells under conditions which favor Th17 differentiation. Total CD4^+ T cells were isolated from the peripheral blood mononuclear cells (PBMC) of healthy donors using a CD4^+ T cell isolation kit II, following the manufacturer's instructions (Miltenyi Biotec). Cells were resuspended in a medium of RPMI-1640 supplemented with 10% fetal bovine serum, penicillin, streptomycin, […], and β-mercaptoethanol and were added to 96-well plates at 1.5x10^5 per 100 µL per well. 50 µL of compound at titrated concentrations in DMSO were added into each well at final DMSO concentration at 0.2%. Cells were incubated for 1 hour, then 50 µL of Th17 cell differentiation medium was added to each well. The final concentrations of antibodies and cytokines (R&D Systems) in differentiation medium were: 3x10^6/mL anti-CD3/CD28 beads (prepared using human T cell activation/expansion kit, Miltenyi Biotec), 10 µg/mL anti-IL4, 10 µg/mL anti-IFNγ, 10 ng/mL IL1β, 10 ng/mL IL23, 50 ng/mL IL6, 3 ng/mL TGFβ and 20 U/mL IL2. Cells were cultured at 37 °C and 5% CO2 for 3 days. Supernatants were collected and the accumulated IL-17 in culture was measured by using MULTI-SPOT® Cytokine Plate following manufacture's instruction (Meso Scale Discovery). The plate was read using Sector Imager 6000, and IL-17 concentration was extrapolated from the standard curve. The IC50s were determined by GraphPad.

[3] = target: T2, human RORγt LBD (Homo sapiens, UniProt P51449); test: RORγt reporter assay (GAL4-RORγt LBD luciferase in HEK293T cells); type: cell-based; settings: for IC50: 24 hours compound treatment; for inhibition at 6 µM: HEK-293T
T2 construct: expressed in transfected cells
T2 sequence (P51449 258-518): T1 sequence (P51449 258-518)
Excerpt: A reporter assay was used to test functional activity of RORγt modulatory compounds on transcriptional activation driven by the RORγt LBD. Cells used in the assay were co-transfected with two constructs. The first construct, pBIND-RORγt LBD, contained the wild type human RORγt LBD fused to the DNA binding domain of the GAL4 protein. The second construct, pGL4.31 (Promega Cat no. C935A), contained multiple GAL4 responsive DNA elements upstream of firefly luciferase. […] The mutant construct was called pBIND-RORγt-AF2.
The pBIND vector contains the GAL4 DNA Binding Domain (GAL4 DBD) and the renilla luciferase gene under control of the SV40 promoter. Renilla luciferase expression serves as a control for transfection efficiency and cell viability.
The reporter assay was performed by transiently transfecting HEK293T cells with 5 µg of pBIND-RORγt LBD or pBIND-RORγt LBD-AF2 and 5 µg pGL4.31 (Promega Cat no. C935A) using Fugene 6 (Invitrogen Cat no. E2691) at a 1:6 ratio of DNA: Fugene 6 in a T-75 flask in which cells were at least 80% confluent. Twenty four hours after bulk transfection, cells were plated into 96-well plates at 50,000 cells/well in phenol-red free DMEM containing 5% Lipid Reduced FCS and Pen/Strep. Six hours after plating, cells were treated with compounds for 24 hours. Media was removed and cells were lysed with 50 µL 1x Glo Lysis Buffer (Promega). Dual Glo Luciferase Reagent (50 µL/well) was then added and firefly luciferase luminescence was read on an Envision after a ten minute incubation. Finally, Stop and Glo reagent (50 µL/well) was added and renilla luciferase luminescence was read on an Envision after a ten minute incubation. To calculate the effect of compounds on RORγt activity, the ratio of firefly to renilla luciferase was determined and plotted against compound concentration. Agonist compounds increase RORγt-driven luciferase expression, and antagonist or inverse agonist compounds decrease luciferase expression.

CCN(CC)c1nc2ccc(C(O)(c3ccccn3)c3cncn3C)cc2c(Cl)c1Oc1ccccc1 (stereo not shown) [Example 3b]
Kd [1]: 140 nM
IC50 ([2]; Homo sapiens, 72 h): 180 nM
IC50 [3]: 200 nM
inhibition at 6 µM [3]: 101%

Cn1cncc1C(O)(c1ccc(Cl)cc1)c1ccc2nc(N3CCC3=O)c(Oc3ccc(C#N)cc3)c(Cl)c2c1 (stereo not shown) [Example 1, 4-((4-chloro-6-((4-chlorophenyl)(hydroxy)(1-methyl-1H-imidazol-5-yl)methyl)-2-(2-oxoazetidin-1-yl)quinofin-3-yl)oxy)benzonitrile · TFA]
Kd [1]: 58 nM
IC50 ([2]; Homo sapiens, 72 h): 300 nM
IC50 [3]: 180 nM
inhibition at 6 µM [3]: 101%

Cn1cncc1C(O)(c1ccc(C(F)(F)F)nc1)c1ccc2nc(N3CCCC3)c(Oc3ccc(C#N)cc3)c(Cl)c2c1 (racemic) [Example 2a, 4-((4-Chloro-6-(hydroxy(1-methyl-1H-imidazol-5-yl)(6-(trifluoromethyl)pyridin-3-yl)methyl)-2-(pyrrolidin-1-yl)quinolin-3-yl)oxy)benzonitrile]
IC50 ([2]; Homo sapiens, CD4+ T, 72 h): 88 nM

CCN(CC)c1nc2ccc(C(O)(c3ccccn3)c3cncn3C)cc2c(Cl)c1Oc1ccccc1 (stereo not shown) [Example 3c]
Kd [1]: 460 nM
IC50 [3]: 1100 nM

Cn1cncc1C(O)(c1ccc(C(F)(F)F)nc1)c1ccc2nc(N3CCCC3)c(Oc3ccc(C#N)cc3)c(Cl)c2c1 (stereo not shown) [Example 2c]
IC50 [2]: 100 nM

Cn1cncc1C(O)(c1ccc(C(F)(F)F)nc1)c1ccc2nc(N3CCCC3)c(Oc3ccc(C#N)cc3)c(Cl)c2c1 (stereo not shown) [Example 2b]
IC50 [2]: 320 nM

CC(C)OC1CN(c2nc3ccc(C(O)(c4ccc(C(F)(F)F)nc4)c4cncn4C)cc3c(Cl)c2Oc2ccc(Cl)cc2)C1 (stereo not shown) [Example 6, (4-Chloro-3-(4-chlorophenoxy)-2-(3-isopropoxyazetidin-1-yl)quinolin-6-yl)(1-methyl-1H-imidazol-5-yl)(6-(trifluoromethyl)pyridin-3-yl)methanol]
Kd [1]: 11000 nM
IC50 [3]: > 6000 nM
inhibition at 6 µM [3]: 41%

CC(C)(C)OC(=O)N(c1ccccc1)c1c(Cl)nc2ccc(C(O)(c3cccnc3)c3cccc(Cl)c3)cc2c1Cl (stereo not shown) [Example 7, tert-Butyl (2,4-dichloro-6-((3-chlorophenyl)(hydroxy)(pyridin-3-yl)methyl)quinolin-3-yl)(phenyl)carbamate]
inhibition at 6 µM [3]: 72%

CCN(CC)c1nc2ccc(C(O)(c3ccccn3)c3cncn3C)cc2c(C#N)c1Oc1ccccc1 (stereo not shown) [Example 5b]
IC50 [3]: 870 nM
inhibition at 6 µM [3]: 102%

CCN(CC)c1nc2ccc(C(O)(c3ccccn3)c3cncn3C)cc2c(C#N)c1Oc1ccccc1 (single isomer, unassigned) [Example 5c]
Kd [1]: > 63000 nM
IC50 ([2]; Homo sapiens, 72 h): 150 nM
IC50 [3]: 270 nM
